Assays:
[1] = system: cAMP formation in astroglial cells (adenylyl cyclase); test: cAMP production, radioimmunoassay; format: cell-based, rat; conditions: ODN 10 pM; 0.1 mM IBMX, 10 min incubation; p<0.001
Experimental: (§1) Secondary cultures of rat cortical astrocytes were prepared as previously described [64]with minor modifications. Briefly, cerebral hemispheres from newborn Wistar rats were collected in DMEM/F12 (2∶1; v/v) culture medium supplemented with 2 mM L-glutamine, 1‰ insulin, 5 mM HEPES, 0.4% glucose and 1% of the antibiotic-antimycotic solution. The tissues were dissociated mechanically with a syringe equipped with a 1-mm gauge needle, and filtered through a 100-µm sieve (Falcon, Franklin Lakes, NJ, USA). Dissociated cells were resuspended in culture medium supplemented with 10% FBS, plated in 175-cm^2 flasks (Greiner Bio-one GmbH, Frickenhausen, Germany) and incubated at 37°C in a 5% CO2/[…] atmosphere. When cultures were confluent, astrocytes were isolated by shaking overnight the flasks on an orbital agitator. Adhesive cells were detached by trypsination and preplated for 5 min to discard contaminating microglial cells. Then, the non-adhering astrocytes were harvested and plated on 35-mm hydrophilic surface Petri dishes at a density of 3×10^5 cells/ml. […]
Cultured cells were pre-incubated for 30 min in serum-free medium containing 0.1 mM IBMX to inhibit phosphodiesterases, and then incubated in the same solution, in the presence or absence of test substances. […] The concentration of cAMP was measured by using a cAMP RIA kit. […]

Bcl-2 = Bcl-2 mRNA level, quantitative RT-PCR; format: cell-based, rat; conditions: ODN 0.1 nM
Experimental: as §1
(§2) Cultured cells were incubated at 37°C for 1 h with fresh serum-free medium in the absence or presence of test substances. […] The amount of Bax and Bcl-2 cDNA in each sample was calculated by the comparative threshold cycle (Ct) method and expressed as 2^exp(−ΔΔCt) using glyceraldehyde-3-phosphate dehydrogenase as an internal control.

Bax = Bax mRNA level, quantitative RT-PCR; format: cell-based, rat; conditions: ODN 0.1 nM
Experimental: as §1, §2

cultured rat astrocytes [2] = test: Living-cell staining and morphology with calcein-AM after H2O2; format: cell-based; conditions: ODN 0.1 nM pretreatment 10 min, then 1 h 300 µM H2O2; calcein-AM staining
Experimental: as §1, with “cells.” for “cells. Then, the non-adhering astrocytes were harvested and plated on 35-mm hydrophilic surface Petri dishes at a density of 3×10^5 cells/ml.”
Cultured cells were incubated at 37°C with fresh serum-free culture medium in the absence or presence of H2O2 and/or ODN for 1 h. Cells were then incubated for 10 min at 37°C with 0.3 µg/ml calcein-AM (producing green fluorescence in living cells), rinsed twice with culture medium without probe and examined on an inverted microscope (Leica, Heidelberg, Germany) equipped with a double pass filter.

cultured rat astrocytes [3] = conditions: ODN 0.1 nM, 300 µM H2O2; cited from earlier work
Experimental: In order to determine the receptor involved in the protective effect of ODN, we have first examined the dose- and the time-course effect of the peptide on detrimental action of H2O2. The protective action of ODN was concentration-dependent for doses ranging from 1 fM to 0.1 nM (Figure 1A). […] The protectiv ...

[4] = 10 min pre-incubation, 1 h 300 µM H2O2

ODN: octadecaneuropeptide, endozepine derived from diazepam-binding inhibitor; endogenous ligand of central-type benzodiazepine and metabotropic receptors; synthesized by Fmoc procedure (QATVGDVNTDRPGLLDLK; Octadecaneuropeptide; UniProt P11030 34-51, looked up)
maximum stimulation of cAMP formation [1]: 179 % over control
effect on H2O2-induced inhibition of Bcl-2 expression (Bcl-2; [4]): suppressed the inhibitory effect of H2O2 on Bcl-2 expression
effect on Bcl-2 mRNA levels, peptide alone (Bcl-2; 1 h, RT-PCR, 6 wells from three cultures): induced an increase of Bcl-2 mRNA levels by itself
effect on H2O2-induced increase of Bax mRNA levels (Bax; [4]): totally prevented the increase of Bax mRNA levels induced by H2O2
effect on Bax mRNA levels, peptide alone (Bax; 1 h, RT-PCR): had no effect on Bax mRNA levels
effect on H2O2-induced morphological changes and loss of calcein labeling (cultured rat astrocytes [2]): totally prevented the deleterious effects of H2O2
effect on H2O2-induced astrocyte cell death (cultured rat astrocytes [3]): able to reverse the effect of 300 µM H2O2-induced astrocyte cell death
